Experimental data published in publication PMC3269340, “Pharmacokinetics of memantine in rats and mice” (PLoS Currents, 2012).

Tests used:
[1] = Stability in human liver microsomes; format: in vitro ADME; details: 0.5 mg/mL pooled male microsomes, read-out: Intrinsic Clearance (Cl int) Liver Microsomes
Protocol: Memantine (1 μM) was incubated in 0.5 mg/mL of pooled male rat, mouse, or human liver microsomes (obtained commercially), in 0.1 M phosphate buffer at 37 °C. After pre-warming the mixture for 5 min, reactions were initiated by the addition of NADPH (1 mM). Aliquots (80 μL) were taken at 0, 5, 10, 20 and 40 min, and the reaction immediately terminated by adding into 80 μL of acetonitrile containing an analytical internal standard (IS). Samples were centrifuged and the supernatant fractions analyzed by LC-MS/MS with multiple reaction monitoring (MRM). All incubations were performed in duplicate. Testosterone was used as the positive control. The MRM area response ratio of the analyte over IS for Time=0(control) was set to 100%, the relative decrease in MRM area ratio intensity over time against that of the control (percent parent decrease) was used to determine the half-life (t1/2) of memantine in the incubation. Half-life values were calculated from the relationship:
t1/2 (min) = -0.693/λ, where λ is the slope of the Ln concentration vs time curve. The intrinsic clearance (Clint) was calculated as:
Clint = (0.693 x incubation volume (μL))/(t½ (min) x mg of microsomal protein)

OATP2B1 = target: T1, OATP2B1 (Homo sapiens, UniProt O94956); experiment: Indirect uptake transporter assay, OATP2B1; format: in vitro ADME
T1 construct: expressed in transfected cells; host or cells: MDCKII cells
T1 sequence (O94956 1-709): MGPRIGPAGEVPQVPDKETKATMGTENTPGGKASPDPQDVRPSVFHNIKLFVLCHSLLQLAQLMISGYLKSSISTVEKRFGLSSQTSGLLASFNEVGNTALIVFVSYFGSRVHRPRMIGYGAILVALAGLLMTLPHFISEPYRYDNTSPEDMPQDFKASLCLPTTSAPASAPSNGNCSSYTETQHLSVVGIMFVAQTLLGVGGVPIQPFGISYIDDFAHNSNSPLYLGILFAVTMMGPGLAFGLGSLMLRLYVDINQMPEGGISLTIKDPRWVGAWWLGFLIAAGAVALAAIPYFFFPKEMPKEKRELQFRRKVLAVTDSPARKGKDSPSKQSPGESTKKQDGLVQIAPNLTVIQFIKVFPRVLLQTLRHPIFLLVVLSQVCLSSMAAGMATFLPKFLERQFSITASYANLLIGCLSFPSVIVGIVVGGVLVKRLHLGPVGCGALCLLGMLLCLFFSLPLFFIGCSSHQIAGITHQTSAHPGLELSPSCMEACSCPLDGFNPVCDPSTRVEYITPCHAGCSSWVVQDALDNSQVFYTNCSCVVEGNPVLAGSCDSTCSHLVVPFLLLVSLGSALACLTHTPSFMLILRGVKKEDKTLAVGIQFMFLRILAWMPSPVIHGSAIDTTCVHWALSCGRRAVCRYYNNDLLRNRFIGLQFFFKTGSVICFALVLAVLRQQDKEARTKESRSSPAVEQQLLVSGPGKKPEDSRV
Source text: To determine whether memantine is an inhibitor of the human OATP2B1 (OATP-B), OCT1, OCT2, OAT3, PEPT1, PEPT2 uptake transporters. The standard uptake transporter assay is an indirect, inhibitory-type screening assay, performed with cold test article, which in this case was memantine. It provides information on any interaction (substrate or inhibitor) between selected uptake transporters and memantine that would affect the transport of the reporter compound. […] A radiolabeled reporter substrate is transported into the cells transfected with the selected human uptake transporter, and the inhibitory effect of memantine on the transport of this reporter substrate is measured. Values are presented on a relative scale; 100% defined as transport in the presence of the solvent and without memantine (no inhibition), and 0% defined as transport detected without transporter activity. IC50 is defined as the concentration required to inhibit the transport of the reporter substrate by 50%. […]
After the experiment cells were rinsed with 2 x 100µl of Krebs-Henseleit buffer and lysed with 50 µl of 0.1M NaOH. ^3H-estrone-3-sulfate, ^14C-TEA, ^14C-metformin and ^3H-Gly-Sar transport was determined by total radioactivity by transferring an aliquot (35µl) from each well to a vial containing liquid scintillant for analysis.

YAC128 mice = details: cited from earlier work
rat AD model = details: cited from earlier work

CC12CC3CC(C)(C1)CC(N)(C3)C2 [memantine]
microsomal CLint at 1 μM [1]: < 13.9 µL/min/mg
IC50 (OATP2B1; OATP2B1, probe printed in Table 5: TEA (3.6 μM), methods and text: E3S): > 300 µM
inhibition at 300 µM (OATP2B1; human, probe 3H-estrone-3-sulfate, at 300 µM, read-out: inhibition of OATP2B1-mediated estrone-3-sulfate transport): 67%
CREB phosphorylation deficit (YAC128 mice; YAC128 mice, 1 mg/kg in drinking water for 2 months, age 4 months): reversed the deficit in CREB phosphorylation
rotarod learning task (YAC128 mice; YAC128 mice, 1 mg/kg in drinking water for 2 months): improvement in a rotarod learning task
motor performance and neuropathology compared to vehicle-treated mice (YAC128 mice; YAC128 mice, high-dose (30 mg/kg)): worsened motor performance and neuropathology
HTT aggregate formation and TCP-1 expression levels (YAC128 mice; YAC128 mice, high-dose): decrease HTT aggregate formation and TCP-1 expression levels
striatal levels of Rhes protein (YAC128 mice; YAC128 mice, low-dose (not high-dose)): decreased striatal levels of Rhes protein
neuropathology and motor deficits (YAC128 mice; aged (12 months) YAC128 mice, low-dose): rescue neuropathology as well as motor deficits
cognition (rat AD model): improved cognition
neuroprotection (rat AD model): elicited neuroprotective effects
